The values that follow come from patent US20220370416A1, “COMPOUNDS AND METHODS FOR TARGETED DEGRADATION OF KRAS” (Arvinas Operations, Inc., priority 2020, published 2022).

Assay [1] deals with T1, HiBit-KRAS^G12C (Homo sapiens, UniProt P01116, G12C). The assay can be described thus: HiBit degradation assay in MiaPaCa-2 HiBit-KRas^G12C cells. To be noted: 24 hours. Type of assay: cell-based. In a few lines:
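MiaPaCa-2 cells with CRISPR N-terminal HiBit knock-in on one endogenous KRAS^G12C allele, treated 24 hours at 37° C with compound titrated 10 μM to 20 nM (0.1% or 0.5% DMSO). Lytic HiBit luminescence normalized to DMSO, 4-parameter fit giving DC50 and Dmax; points cytotoxic to […] cells by alamar blue excluded.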

In assay [2] the target is T1, HiBit-KRAS^G12C. Briefly: HiBit degradation assay in SW1573 HiBit-KRas^G12C cells. To be noted: 24 hours. More on the design: expressed in transfected cells; host or cells: SW1573 (clone E6), modified pcDNA3.1 vector, TK promoter. Type of assay: cell-based. In a few lines:
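SW1573 cells stably expressing N-terminally HiBit-tagged KRAS G12C, under the TK promoter, were treated 24 h at 37 °C with 10 μM to 20 nM compound in 0.1% or 0.5% DMSO. Residual HiBit luminescence normalised to DMSO and fitted with a 4-parameter model for DC50 and Dmax. Points with ≥50% viability loss (alamar blue) excluded.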
In general terms: The HiBiT peptide binds its large partner to form an active luciferase.

The mark [3] stands for this setting: read-out: KRas^G12C-HiBiT (MiaPaCa; 0.5% DMSO) IC50, MiaPaCa-2 HiBit-KRas^G12C cells, 0.5% DMSO.
[4] abbreviates: read-out: KRas^G12C-HiBiT (SW1573; 0.5% DMSO) IC50***, SW1573 HiBit-KRas^G12C, 0.5% DMSO.
[5] abbreviates: MIA PaCa-2, MiaPaCa-2 HiBit-KRas^G12C cells, 0.1% DMSO, maximum degradation, read-out: KRas^G12C-HiBiT (MiaPaCa; 0.1% DMSO) DMax.
Setting [6] is: SW1573, SW1573 HiBit-KRas^G12C, 0.1% DMSO, read-out: KRas^G12C-HiBit (SW1573; 0.1% DMSO) Dmax**.
Setting [7] is: SW1573 HiBit-KRas^G12C, 0.1% DMSO, read-out: KRas^G12C-HIBit (SW1573; 0.1% DMSO) DC50*.
Where [8] appears, read: MIA PaCa-2, MiaPaCa-2 HiBit-KRas^G12C cells, 0.5% DMSO, maximum degradation, read-out: KRas^G12C-HiBiT (MiaPaCa; 0.5% DMSO) DMax.
[9] abbreviates: SW1573, SW1573 HiBit-KRas^G12C, 0.5% DMSO, read-out: KRas^G12C-HiBiT (SW1573; 0.5% DMSO) Dmax**.

A value given as a limit tells only on which side of the number the result lay.

T1 sequence (P01116 1-186 isoform P01116-2 G12C limits assumed): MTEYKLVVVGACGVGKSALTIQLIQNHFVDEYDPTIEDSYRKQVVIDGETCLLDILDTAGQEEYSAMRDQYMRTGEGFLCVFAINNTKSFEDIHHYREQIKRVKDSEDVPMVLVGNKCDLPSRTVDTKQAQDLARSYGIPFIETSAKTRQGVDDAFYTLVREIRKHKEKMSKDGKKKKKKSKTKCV

`C=C(F)C(=O)N1CCN(c2nc(OCCN3CCC(COc4cc([C@H](C(=O)N5C[C@H](O)C[C@H]5C(=O)N[C@@H](C)c5ccc(-c6scnc6C)cc5)C(C)C)on4)CC3)nc3c(F)c(-c4cc(O)cc5ccccc45)c(Cl)cc23)C[C@@H]1CC#N` [Compound 168, (2S,4R)-1-[(2R)-2-[3-({1-[2-({6-chloro-4-[(3S)-3-(cyanomethyl)-4-(2-fluoroprop-2-enoyl)piperazin-1-yl]-8-fluoro-7-(3-hydroxynaphthalen-1-yl)quinazolin-2-yl}oxy)ethyl]piperidin-4-yl}methoxy)-1,2-oxazol-5-yl]-3-methylbutanoyl]-4-hydroxy-N-[(1S)-1-[4-(4-methyl-1,3-thiazol-5-yl)phenyl]ethyl]pyrrolidine-2-carboxamide]: the “KRas^G12C-HiBiT (MiaPaCa; 0.5% DMSO) DMax” value at HiBit-KRAS^G12C [1] (MiaPaCa-2 HiBit-KRas^G12C cells, 0.5% DMSO, maximum degradation) is reported as “A (A ≥ 70)”. Also, the DC50 on HiBit-KRAS^G12C [1] (setting [3]) and at HiBit-KRAS^G12C [2] (setting [4]) was 100 to 1000 nM each time. The “KRas^G12C-HiBiT (SW1573; 0.5% DMSO) Dmax**” value on HiBit-KRAS^G12C [2] (SW1573 HiBit-KRas^G12C, 0.5% DMSO) is recorded as “A (A ≥ 70)”.

With `C=CC(=O)N1CCN(c2nc(O[C@H](C)CN3CCC(OCCOc4cc(-c5scnc5C)ccc4CNC(=O)[C@@H]4C[C@@H](O)CN4C(=O)[C@H](c4cc(C)no4)C(C)C)CC3)nc3c(F)c(-c4cc(O)cc5ccccc45)c(Cl)cc23)CC1` [Compound 77, (2S,4R)-N-({2-[2-({1-[(2R)-2-{[6-chloro-8-fluoro-7-(3-hydroxynaphthalen-1-yl)-4-[4-(prop-2-enoyl)piperazin-1-yl]quinazolin-2-yl]oxy}propyl]piperidin-4-yl}oxy)ethoxy]-4-(4-methyl-1,3-thiazol-5-yl)phenyl}methyl)-4-hydroxy-1-[(2S)-3-methyl-2-(3-methyl-1,2-oxazol-5-yl)butanoyl]pyrrolidine-2-carboxamide], the Dmax on HiBit-KRAS^G12C [1] (setting [5]) and at HiBit-KRAS^G12C [2] (setting [6]) was under 35% each time. Also, the DC50 at HiBit-KRAS^G12C [2] (setting [7]) lay within 100 to 1000 nM.

Turning to `C=CC(=O)N1CCN(c2nc(OCCN3CCC4(CC3)CN(c3cc([C@@H](C(=O)N5C[C@H](O)C[C@H]5C(=O)N[C@@H](C)c5ccc(-c6scnc6C)cc5)C(C)C)on3)C4)nc3c(F)c(-c4cc(O)cc5ccccc45)c(Cl)cc23)C[C@@H]1CC#N` (atropisomer, axis not shown) [Compound 108, (2S,4R)-1-[(2S)-2-(3-{7-[2-({6-chloro-4-[(3S)-3-(cyanomethyl)-4-(prop-2-enoyl)piperazin-1-yl]-8-fluoro-7-(3-hydroxynaphthalen-1-yl)quinazolin-2-yl}oxy)ethyl]-2,7-diazaspiro[3.5]nonan-2-yl}-1,2-oxazol-5-yl)-3-methylbutanoyl]-4-hydroxy-N-[(1S)-1-[4-(4-methyl-1,3-thiazol-5-yl)phenyl]ethyl]pyrrolidine-2-carboxamide], the Dmax at HiBit-KRAS^G12C [1] (setting [8]) was under 35%. Moreover, the DC50 is 100 to 1000 nM at HiBit-KRAS^G12C [1] (setting [3]) and over 1000 nM at HiBit-KRAS^G12C [2] (setting [4]).

`C=CC(=O)N1CCN(c2nc(OCCN3CCC(COCC(=O)N[C@H](C(=O)N4C[C@H](O)C[C@H]4C(=O)N[C@@H](C)c4ccc(-c5scnc5C)cc4)C(C)(C)C)CC3)nc3c(F)c(-c4nc(N)cc5ccccc45)c(Cl)cc23)C[C@@H]1CC#N` [Compound 111]: the Dmax at HiBit-KRAS^G12C [1] (setting [8]) and at HiBit-KRAS^G12C [2] (setting [9]) was 35 to 70% each time. Besides, the DC50 on HiBit-KRAS^G12C [1] (setting [3]) and at HiBit-KRAS^G12C [2] (setting [4]) was 100 to 1000 nM throughout.

As to `C=C(F)C(=O)N1CCN(c2nc(OCCN3CCC(F)(COc4cc([C@@H](C(=O)N5C[C@H](O)C[C@H]5C(=O)N[C@@H](C)c5ccc(-c6ccnn6C)cc5)C(C)C)on4)CC3)nc3c(F)c(-c4cc(O)cc5ccccc45)c(Cl)cc23)C[C@@H]1CC#N` (atropisomer, axis not shown) [Compound 118, (2S,4R)-1-[(2S)-2-[3-({1-[2-({6-chloro-4-[(3S)-3-(cyanomethyl)-4-(2-fluoroprop-2-enoyl)piperazin-1-yl]-8-fluoro-7-(3-hydroxynaphthalen-1-yl)quinazolin-2-yl}oxy)ethyl]-4-fluoropiperidin-4-yl}methoxy)-1,2-oxazol-5-yl]-3-methylbutanoyl]-4-hydroxy-N-[(1S)-1-[4-(1-methyl-1H-pyrazol-5-yl)phenyl]ethyl]pyrrolidine-2-carboxamide], the DC50 on HiBit-KRAS^G12C [1] (setting [3]) is over 1000 nM; on HiBit-KRAS^G12C [2] (setting [4]) it was 100 to 1000 nM.

With `C=CC(=O)N1CCN(c2nc(O[C@H](C)CN3CCC(C(=O)N[C@H](C(=O)N4C[C@H](O)C[C@H]4C(=O)N[C@@H](C)c4ccc(-c5scnc5C)cc4)C(C)(C)C)CC3)nc3c(F)c(-c4cc(O)cc5ccccc45)c(Cl)cc23)CC1` [Compound 34, 1-[(2R)-2-{[6-chloro-8-fluoro-7-(3-hydroxynaphthalen-1-yl)-4-[4-(prop-2-enoyl)piperazin-1-yl]quinazolin-2-yl]oxy}propyl]-N-[(2S)-1-[(2S,4R)-4-hydroxy-2-{[(1S)-1-[4-(4-methyl-1,3-thiazol-5-yl)phenyl]ethyl]carbamoyl}pyrrolidin-1-yl]-3,3-dimethyl-1-oxobutan-2-yl]piperidine-4-carboxamide], the DC50 on HiBit-KRAS^G12C [1] (read-out: KRas^G12C-HiBiT (MiaPaCa; 0.1% DMSO) IC50, MiaPaCa-2 HiBit-KRas^G12C cells, 0.1% DMSO) is over 1000 nM; on HiBit-KRAS^G12C [2] (setting [7]), 100 to 1000 nM. The Dmax on HiBit-KRAS^G12C [2] (setting [6]) was under 35%.

With `C=CC(=O)N1CCN(c2nc(OCCN3CCC4(CC3)CN(CC(=O)N[C@H](C(=O)N3C[C@H](O)C[C@H]3C(=O)N[C@@H](C)c3ccc(-c5scnc5C)cc3)C(C)(C)C)C4)nc3c(F)c(-c4cc(O)cc5ccccc45)c(Cl)cc23)C[C@@H]1CC#N` [Compound 145, (2S,4R)-1-[(2S)-2-(2-{7-[2-({6-chloro-4-[(3S)-3-(cyanomethyl)-4-(prop-2-enoyl)piperazin-1-yl)-8-fluoro-7-(3-hydroxynaphthalen-1-yl)quinazolin-2-yl}oxy)ethyl]-2,7-diazaspiro[3.5]nonan-2-yl}acetamido)-3,3-dimethylbutanoyl]-4-hydroxy-N-[(1S)-1-[4-(4-methyl-1,3-thiazol-5-yl)phenyl]ethyl]pyrrolidine-2-carboxamide], the Dmax on HiBit-KRAS^G12C [1] (MIA PaCa-2, read-out: KRas^G12C-HiBiT (MiaPaCa; 0.5% DMSO) DMax, MiaPaCa-2 HiBit-KRas^G12C cells, 0.5% DMSO, maximum degradation) was 35 to 70%; on HiBit-KRAS^G12C [2] (SW1573, read-out: KRas^G12C-HiBiT (SW1573; 0.5% DMSO) Dmax**, SW1573 HiBit-KRas^G12C, 0.5% DMSO), over 70%. The DC50 on HiBit-KRAS^G12C [1] (setting [3]) and at HiBit-KRAS^G12C [2] (setting [4]) was 100 to 1000 nM each time.

With `C=CC(=O)N1CCN(c2nc(OCCN3CCC4(CC3)CN(c3cc([C@@H](C(=O)N5C[C@H](O)C[C@H]5C(=O)N[C@@H](C)c5ccc(-c6ccnn6C)cc5)C(C)C)on3)C4)nc3c(F)c(-c4cc(O)cc5ccccc45)c(Cl)cc23)C[C@@H]1CC#N` (atropisomer, axis not shown) [Compound 101, (2S,4R)-1-[(2S)-2-(3-{7-[2-({6-chloro-4-[(3S)-3-(cyanomethyl)-4-(prop-2-enoyl)piperazin-1-yl]-8-fluoro-7-(3-hydroxynaphthalen-1-yl)quinazolin-2-yl}oxy)ethyl]-2,7-diazaspiro[3.5]nonan-2-yl}-1,2-oxazol-5-yl)-3-methylbutanoyl]-4-hydroxy-N-[(1S)-1-[4-(1-methyl-1H-pyrazol-5-yl)phenyl]ethyl]pyrrolidine-2-carboxamide], the DC50 on HiBit-KRAS^G12C [1] (setting [3]) and at HiBit-KRAS^G12C [2] (setting [4]) was over 1000 nM in each case.

For `C=CC(=O)N1CCN(c2nc(O[C@H](C)CN3CCC(OCCOCC(=O)N[C@H](C(=O)N4C[C@H](O)C[C@H]4C(=O)N[C@@H](C)c4ccc(-c5scnc5C)cc4)C(C)(C)C)CC3)nc3c(F)c(-c4cc(O)cc5ccccc45)c(Cl)cc23)[C@@H](C)C1` [Compound 39, (2S,4R)-1-[(2S)-2-{2-[2-({1-[(2R)-2-{[6-chloro-8-fluoro-7-(3-hydroxynaphthalen-1-yl)-4-[(2S)-2-methyl-4-(prop-2-enoyl)piperazin-1-yl]quinazolin-2-yl]oxy}propyl]piperidin-4-yl}oxy)ethoxy]acetamido}-3,3-dimethylbutanoyl]-4-hydroxy-N-[(1S)-1-[4-(4-methyl-1,3-thiazol-5-yl)phenyl]ethyl]pyrrolidine-2-carboxamide], the Dmax at HiBit-KRAS^G12C [1] (setting [5]) is under 35%; on HiBit-KRAS^G12C [2] (setting [6]) it was 35 to 70%; at HiBit-KRAS^G12C [2] (setting [9]), 35 to 70%. Further, the DC50 at HiBit-KRAS^G12C [1] (setting [3]) is over 1000 nM; on HiBit-KRAS^G12C [2] (setting [7]), 100 to 1000 nM.
